Results published in patent publication US20100105031A1, “METHOD FOR PREDICTION OF THE EFFICACY OF VASCULARIZATION INHIBITOR” (Esai R & D Management Co., Ltd., priority 2005, published 2010).

Legend:
AsPC-1 [1] = assay: Example 3 antitumor effect, relative tumor volume, subcutaneously transplanted model (AsPC-1); assay type: in vivo, nude mouse; conditions: FIG. 2
Experimental: (§1) Human cancer cell lines AsPC-1 and H526 (both strains were purchased from ATCC) were cultured with RPMI1640 (containing 10% FBS) in a 5% CO2 incubator until they reached about 80% confluence. After culturing, cells from each strain were recovered with trypsin-EDTA by conventional procedures. The cells were suspended in phosphate buffer to prepare a cell suspension of 5×10^7 cells/ml. Subsequently, 0.1 ml of the cell suspension was subcutaneously transplanted on the lateral side of each nude mouse. After transplantation, when the tumor volume reached about 50-200 mm^3, administration of 5-(5-fluoro-2-oxo-1,2-dihydroindole-3-ylidenemethyl)-2,4-dimethyl-1H-pyrrole-3-carboxylic acid (2-diethylaminoethyl)amide (100 mg/kg, once a day, one week, oral administration) was started. The 5-(5-fluoro-2-oxo-1,2-dihydroindole-3-ylidenemethyl)-2,4-dimethyl-1H-pyrrole-3-carboxylic acid (2-diethylaminoethyl)amide was prepared based on the disclosure in WO 01/060814. The major axis and minor axis of tumor were measured with a Degimatic Caliper (Mitsutoyo). Then, tumor volume and relative tumor volume were calculated using the following formulas:
(§2) Tumor volume(TV)=tumor major axis(mm)×tumor minor axis^2(mm^2)/2
(§3) Relative tumor volume(RTV)=tumor volume on the measurement day/tumor volume on the starting day of administration

H526 [2] = assay: Example 3 antitumor effect, relative tumor volume, subcutaneously transplanted model (H526); assay type: in vivo, nude mouse; conditions: FIG. 2
Experimental: as §1, §2, §3

colorectal cancer = conditions: clinical trials; cited from earlier work
MDA-MB-468 = assay: Antitumor effect in human cancer cell line subcutaneously transplanted model (MDA-MB-468); assay type: in vivo, nude mouse
From the text: (§4) Human cancer cell lines A375 (purchased from Dainippon Pharma Co., Ltd.), SEKI, HMV-1 (these two lines were purchased from JCRB cell bank, National Institute of Biomedical Innovation), FEM (granted from Dr. Fodstad, The Norwegian Radiumhospital Research Foundation), LOX (purchased from AntiCancer), AZ-521 (purchased from Japan Health Science Foundation), MDA-MB-468, DLD-1, HCT116, SW620, PC-3, DU145, AsPC-1, H526, MDA-MB-231, SK-Mel-2, Lovo and A431 (these 12 lines were purchased from ATCC) were cultured with RPMI1640 (containing 10% FBS) in a 5% CO2 incubator until they reached about 80% confluence. After culturing, cells from each line w ere recovered with trypsin-EDTA by conventional procedures. The cells were suspended in phosphate buffer solution to prepare a cell suspension of 1×10^8 cells/ml or 5×10^7 cells/ml. Subsequently, 0.1 ml of the cell suspension was subcutaneously transplanted on the lateral side of each nude mouse. After transplantation, when the tumor volume reached about 100-200 mm^3, administration of 4-(3-chloro-4-(cyclopropylaminocarbonyl)-aminophenoxy)-7-methoxy-6-quinolinecarboxamide was started (100 mg/kg; twice a day; one week; oral administration). […] The major axis and minor axis of tumor were measured with a Degimatic Caliper (Mitsutoyo). Then, tumor volume and ΔT/C were calculated using the following formulas: […]

MDA-MB-231 = assay: Antitumor effect in human cancer cell line subcutaneously transplanted model (MDA-MB-231); assay type: in vivo, nude mouse
From the text: as §4

DU145 = assay: Antitumor effect in human cancer cell line subcutaneously transplanted model (DU145); assay type: in vivo, nude mouse
From the text: as §4

AZ-521 = assay: Antitumor effect in human cancer cell line subcutaneously transplanted model (AZ-521); assay type: in vivo, nude mouse
From the text: as §4

Lovo = assay: Antitumor effect in human cancer cell line subcutaneously transplanted model (Lovo); assay type: in vivo, nude mouse
From the text: as §4

SK-Mel-2 = assay: Antitumor effect in human cancer cell line subcutaneously transplanted model (SK-Mel-2); assay type: in vivo, nude mouse
From the text: as §4

AsPC-1 [3] = assay: Antitumor effect in human cancer cell line subcutaneously transplanted model (AsPC-1); assay type: in vivo, nude mouse
From the text: as §4

A431 = assay: Antitumor effect in human cancer cell line subcutaneously transplanted model (A431); assay type: in vivo, nude mouse
From the text: as §4

SW620 = assay: Antitumor effect in human cancer cell line subcutaneously transplanted model (SW620); assay type: in vivo, nude mouse
From the text: as §4

DLD-1 = assay: Antitumor effect in human cancer cell line subcutaneously transplanted model (DLD-1); assay type: in vivo, nude mouse
From the text: as §4

HCT116 = assay: Antitumor effect in human cancer cell line subcutaneously transplanted model (HCT116); assay type: in vivo, nude mouse
From the text: as §4

A375 = assay: Antitumor effect in human cancer cell line subcutaneously transplanted model (A375); assay type: in vivo, nude mouse
From the text: as §4

LOX = assay: Antitumor effect in human cancer cell line subcutaneously transplanted model (LOX); assay type: in vivo, nude mouse
From the text: as §4

HMV-1 = assay: Antitumor effect in human cancer cell line subcutaneously transplanted model (HMV-1); assay type: in vivo, nude mouse
From the text: as §4

SEKI = assay: Antitumor effect in human cancer cell line subcutaneously transplanted model (SEKI); assay type: in vivo, nude mouse
From the text: as §4

FEM = assay: Antitumor effect in human cancer cell line subcutaneously transplanted model (FEM); assay type: in vivo, nude mouse
From the text: as §4

PC-3 = assay: Antitumor effect in human cancer cell line subcutaneously transplanted model (PC-3); assay type: in vivo, nude mouse
From the text: as §4

H526 [4] = assay: Antitumor effect in human cancer cell line subcutaneously transplanted model (H526); assay type: in vivo, nude mouse
From the text: as §4

[5] = Compound 2 administration group, 100 mg/kg once a day, one week, oral
[6] = class by intensity of antitumor effect (ΔT/C)
[7] = Melanoma, 100 mg/kg twice a day, one week, oral, day 8 vs day 1
[8] = Compound 1 administration group

Q: Which tumor proliferation (AsPC-1 [1]; [5]) does the source give for CCN(CC)CCNC(=O)c1c(C)[nH]c(/C=C2\C(=O)Nc3ccc(F)cc32)c1C [Compound 2, 5-(5-fluoro-2-oxo-1,2-dihydroindole-3-ylidenemethyl)-2,4-dimethyl-1H-pyrrole-3-carboxylic acid (2-diethylaminoethyl)amide, reference compound] here?
A: The tumor proliferation was “rested”.

Q: What about the tumor proliferation (H526 [2]; [5]) of the same molecule?
A: Its tumor proliferation is “delayed”.

Q: With “bevacizumab: human anti-VEGF monoclonal antibody sold by Genentech as Avastin” as the molecule, how does the antitumor effect (colorectal cancer) read?
A: Its antitumor effect is “shown an antitumor effect”.

Q: Which results are given for COc1cc2nccc(Oc3ccc(NC(=O)NC4CC4)c(Cl)c3)c2cc1C(N)=O [Compound 1, 4-(3-chloro-4-(cyclopropylaminocarbonyl)aminophenoxy)-7-methoxy-6-quinolinecarboxamide]?
A: ΔT/C (MDA-MB-468; MDA-MB-468, Breast cancer, 100 mg/kg twice a day, one week, oral, day 8 vs day 1): −53%; Classification (MDA-MB-468; MDA-MB-468, class by intensity of antitumor effect (ΔT/C)): Shrinkage line (Cancer cell lines which showed ΔT/C<−30% were classified as shrinkage lines); ΔT/C (MDA-MB-231; MDA-MB-231, Breast cancer, 100 mg/kg twice a day, one week, oral, day 8 vs day 1): −33%; Classification (MDA-MB-231; MDA-MB-231, class by intensity of antitumor effect (ΔT/C)): Shrinkage line (Cancer cell lines which showed ΔT/C<−30% were classified as shrinkage lines); ΔT/C (DU145; DU145, Prostate cancer, 100 mg/kg twice a day, one week, oral, day 8 vs day 1): −60%; Classification (DU145; DU145, class by intensity of antitumor effect (ΔT/C)): Shrinkage line (Cancer cell lines which showed ΔT/C<−30% were classified as shrinkage lines); ΔT/C (AZ-521; AZ-521, Gastric cancer, 100 mg/kg twice a day, one week, oral, day 8 vs day 1): −57%; Classification (AZ-521; AZ-521, class by intensity of antitumor effect (ΔT/C)): Shrinkage line (Cancer cell lines which showed ΔT/C<−30% were classified as shrinkage lines); ΔT/C (Lovo; Large bowel cancer, 100 mg/kg twice a day, one week, oral, day 8 vs day 1): −11%; Classification (Lovo; [6]): Rest line (cancer cell lines which showed −30%<ΔT/C<10% were classified as rest lines); ΔT/C (SK-Mel-2; SK-Mel-2, Melanoma, 100 mg/kg twice a day, one week, oral, day 8 vs day 1): −2.5%; Classification (SK-Mel-2; SK-Mel-2, class by intensity of antitumor effect (ΔT/C)): Rest line (cancer cell lines which showed −30%<ΔT/C<10% were classified as rest lines); ΔT/C (AsPC-1 [3]; AsPC-1, Pancreatic cancer, 100 mg/kg twice a day, one week, oral, day 8 vs day 1): −8%; Classification (AsPC-1 [3]; AsPC-1, class by intensity of antitumor effect (ΔT/C)): Rest line (cancer cell lines which showed −30%<ΔT/C<10% were classified as rest lines); ΔT/C (A431; A431, Epidermoid carcinoma, 100 mg/kg twice a day, one week, oral, day 8 vs day 1): −8%; Classification (A431; A431, class by intensity of antitumor effect (ΔT/C)): Rest line (cancer cell lines which showed −30%<ΔT/C<10% were classified as rest lines); ΔT/C (SW620; SW620, Large bowel cancer, 100 mg/kg twice a day, one week, oral, day 8 vs day 1): 22%; Classification (SW620; SW620, class by intensity of antitumor effect (ΔT/C)): Proliferation line (cancer cell lines which showed 10%<ΔT/C were classified as proliferation lines); ΔT/C (DLD-1; DLD-1, Large bowel cancer, 100 mg/kg twice a day, one week, oral, day 8 vs day 1): 52%; Classification (DLD-1; DLD-1, class by intensity of antitumor effect (ΔT/C)): Proliferation line (cancer cell lines which showed 10%<ΔT/C were classified as proliferation lines); ΔT/C (HCT116; HCT116, Large bowel cancer, 100 mg/kg twice a day, one week, oral, day 8 vs day 1): 17%; Classification (HCT116; HCT116, class by intensity of antitumor effect (ΔT/C)): Proliferation line (cancer cell lines which showed 10%<ΔT/C were classified as proliferation lines); ΔT/C (A375; A375, Melanoma, 100 mg/kg twice a day, one week, oral, day 8 vs day 1): 26%; Classification (A375; A375, class by intensity of antitumor effect (ΔT/C)): Proliferation line (cancer cell lines which showed 10%<ΔT/C were classified as proliferation lines); ΔT/C (LOX; [7]): 42%; Classification (LOX; [6]): Proliferation line (cancer cell lines which showed 10%<ΔT/C were classified as proliferation lines); ΔT/C (HMV-1; HMV-1, Melanoma, 100 mg/kg twice a day, one week, oral, day 8 vs day 1): 19%; Classification (HMV-1; HMV-1, class by intensity of antitumor effect (ΔT/C)): Proliferation line (cancer cell lines which showed 10%<ΔT/C were classified as proliferation lines); ΔT/C (SEKI; [7]): 110%; Classification (SEKI; [6]): Proliferation line (cancer cell lines which showed 10%<ΔT/C were classified as proliferation lines); ΔT/C (FEM; [7]): 55%; Classification (FEM; [6]): Proliferation line (cancer cell lines which showed 10%<ΔT/C were classified as proliferation lines); ΔT/C (PC-3; PC-3, Prostate cancer, 100 mg/kg twice a day, one week, oral, day 8 vs day 1): 54%; Classification (PC-3; PC-3, class by intensity of antitumor effect (ΔT/C)): Proliferation line (cancer cell lines which showed 10%<ΔT/C were classified as proliferation lines); ΔT/C (H526 [4]; H526, Small cell lung cancer, 100 mg/kg twice a day, one week, oral, day 8 vs day 1): 22%; Classification (H526 [4]; H526, class by intensity of antitumor effect (ΔT/C)): Proliferation line (cancer cell lines which showed 10%<ΔT/C were classified as proliferation lines); tumor proliferation (AsPC-1 [1]; [8]): rested; tumor proliferation (H526 [2]; [8]): delayed
